From patent US12643910B2, “Substituted pyrazolo[3,4-b]pyridines as ectonucleotide pyrophosphatase/phosphodiesterase 1 (ENPP1) modulators” (SANFORD BURNHAM PREBYS MEDICAL DISCOVERY INSTITUTE, priority 2019, dated 2026)

What was measured:
human ENPP1 = biological target: T1, human ENPP1 (Homo sapiens, UniProt P22413); experiment: ENPP1 assay with ATP substrate (Transcreener AMP2/GMP2 TR-FRET); format: biochemical; conditions: 1 hour at room temperature
T1 construct: made in house
T1 sequence (P22413 1-925): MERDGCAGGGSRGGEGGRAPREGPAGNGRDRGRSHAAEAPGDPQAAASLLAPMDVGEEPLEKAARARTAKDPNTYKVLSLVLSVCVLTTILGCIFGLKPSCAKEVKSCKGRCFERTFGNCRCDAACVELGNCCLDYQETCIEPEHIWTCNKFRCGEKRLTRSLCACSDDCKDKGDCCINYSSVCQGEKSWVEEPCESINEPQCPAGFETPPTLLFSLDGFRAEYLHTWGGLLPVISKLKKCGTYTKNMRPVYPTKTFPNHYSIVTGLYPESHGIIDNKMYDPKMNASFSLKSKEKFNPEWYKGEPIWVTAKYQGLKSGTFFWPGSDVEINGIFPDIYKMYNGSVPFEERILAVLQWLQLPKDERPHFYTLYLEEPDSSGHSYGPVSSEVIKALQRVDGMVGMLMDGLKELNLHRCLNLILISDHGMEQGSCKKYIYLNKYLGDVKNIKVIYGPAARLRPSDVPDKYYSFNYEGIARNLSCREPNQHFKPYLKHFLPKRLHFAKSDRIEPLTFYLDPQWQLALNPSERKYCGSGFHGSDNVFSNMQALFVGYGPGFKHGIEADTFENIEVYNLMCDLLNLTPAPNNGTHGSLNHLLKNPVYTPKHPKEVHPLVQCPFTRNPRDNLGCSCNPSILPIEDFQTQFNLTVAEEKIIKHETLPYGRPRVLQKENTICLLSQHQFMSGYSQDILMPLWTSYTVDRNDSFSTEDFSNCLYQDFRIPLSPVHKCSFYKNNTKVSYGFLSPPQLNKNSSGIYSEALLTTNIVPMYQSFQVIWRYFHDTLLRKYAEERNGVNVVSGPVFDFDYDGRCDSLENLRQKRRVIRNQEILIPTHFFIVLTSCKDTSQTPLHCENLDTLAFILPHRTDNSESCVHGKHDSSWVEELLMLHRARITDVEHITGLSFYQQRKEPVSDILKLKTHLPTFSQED
In short: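 5′-AMP from ATP hydrolysis (300 nM ATP stock added; enzyme added as 8.5 μM stock) detected by competitive TR-FRET. Buffer: 50 mM Tris pH 7.5, 1 mM TCEP, 2 mM MgCl2, 0.005% Tween 20, 1% DMSO. Reaction 1 h at room temperature, EDTA stop. IC50 from 2-parameter variable-slope fit.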

ENPP3 = biological target: T2, ENPP3 (Homo sapiens, UniProt O14638); experiment: ENPP3 Km ATP assay; format: biochemical; conditions: ATP at Km
T2 sequence (O14638 1-875): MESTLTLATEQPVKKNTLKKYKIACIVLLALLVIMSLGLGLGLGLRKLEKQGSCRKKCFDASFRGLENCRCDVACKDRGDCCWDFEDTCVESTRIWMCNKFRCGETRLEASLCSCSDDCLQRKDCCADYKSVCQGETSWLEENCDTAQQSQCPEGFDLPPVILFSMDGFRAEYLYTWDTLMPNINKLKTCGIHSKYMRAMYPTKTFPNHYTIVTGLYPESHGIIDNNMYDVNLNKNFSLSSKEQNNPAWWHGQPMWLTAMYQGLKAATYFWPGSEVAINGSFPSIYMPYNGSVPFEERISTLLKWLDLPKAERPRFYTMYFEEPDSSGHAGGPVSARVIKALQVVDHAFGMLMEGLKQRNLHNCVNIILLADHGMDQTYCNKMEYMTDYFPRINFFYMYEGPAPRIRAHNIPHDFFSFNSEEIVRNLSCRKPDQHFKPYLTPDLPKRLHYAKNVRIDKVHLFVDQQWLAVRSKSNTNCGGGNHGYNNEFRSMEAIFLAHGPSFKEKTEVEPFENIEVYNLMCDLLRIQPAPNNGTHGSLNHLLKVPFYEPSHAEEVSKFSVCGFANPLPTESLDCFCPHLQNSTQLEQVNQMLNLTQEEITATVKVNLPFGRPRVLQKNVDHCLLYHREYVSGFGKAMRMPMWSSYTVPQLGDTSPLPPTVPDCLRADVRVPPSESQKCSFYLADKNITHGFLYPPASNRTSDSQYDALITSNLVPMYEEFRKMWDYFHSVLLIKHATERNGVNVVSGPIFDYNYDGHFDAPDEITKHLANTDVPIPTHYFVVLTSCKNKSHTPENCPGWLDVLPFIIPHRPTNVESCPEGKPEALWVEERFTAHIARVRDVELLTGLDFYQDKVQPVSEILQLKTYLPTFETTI

| Compound | IC50 (human ENPP1) | IC50 (ENPP3) |
| --- | --- | --- |
| CN1CCN(c2nc(N3CCC(NCCCc4ccncc4)CC3)c3cnn(C)c3n2)CC1 [Example 2.6, 1-(1-Methyl-6-(4-methylpiperazin-1-yl)-1H-pyrazolo[3,4-d]pyrimidin-4-yl)-N-(3-(pyridin-4-yl)propyl)piperidin-4-amine] | > 20 µM | > 20 µM |
| Cc1cnccc1CCCNC1CCN(c2ncnc3c(C)csc23)CC1 [Example 3.35, N-(3-(3-Methylpyridin-4-yl)propyl)-1-(7-methylthieno[3,2-d]pyrimidin-4-yl)piperidin-4-amine] | 0.1 to 1 µM | > 20 µM |
| Cc1csc2c(N3CCC(NC(=O)COc4ccc(F)cc4)CC3)ncnc12 [Example 3.22, 2-(4-Fluorophenoxy)-N-(1-(7-methylthieno[3,2-d]pyrimidin-4-yl)piperidin-4-yl)acetamide] | 1 to 20 µM | > 20 µM |
| COc1cc(S(N)(=O)=O)ccc1CNc1ncnc2c1cnn2C [Example 2.3, 3-Methoxy-4-(((1-methyl-1H-pyrazolo[3,4-d]pyrimidin-4-yl)amino)methyl)-benzenesulfonamide] | 0.1 to 1 µM | 1 to 20 µM |
| COc1cc(CNc2nc(-c3ccccn3)nc3scc(-c4ccccc4)c23)ccc1S(N)(=O)=O [Example 1.16, 2-Methoxy-4-(((5-phenyl-2-(pyridin-2-yl)thieno[2,3-d]pyrimidin-4-yl)amino)methyl)benzenesulfonamide] | 0.1 to 1 µM | 1 to 20 µM |
| O=C(CCc1ccc(F)cc1)NC1CCN(c2ncnc3c(I)csc23)CC1 [Example 3.48, 3-(4-Fluorophenyl)-N-(1-(7-iodothieno[3,2-d]pyrimidin-4-yl)piperidin-4-yl)propanamide] | 0.1 to 1 µM | > 20 µM |
| NS(=O)(=O)N1CCC(CNc2nc(-c3ccccn3)nc3scc(-c4ccccc4)c23)CC1 [Example 1.67, 4-((5-Phenyl-2-(2-pyridyl)thieno[2,3-d]pyrimidin-4-yl)aminomethyl)-1-piperidinesulfonamide] | 0.1 to 1 µM | 1 to 20 µM |
| COCCNc1nc(NCc2ccc(S(N)(=O)=O)cc2)c2c(-c3ccccc3)csc2n1 [Example 1.54, 4-((2-(2-Methoxyethyl)amino-5-phenylthieno[2,3-d]pyrimidin-4-yl)aminomethyl)-benzenesulfonamide] | < 0.1 µM | < 0.1 µM |
| CCN(CCO)c1nc(NCc2ccc(S(N)(=O)=O)cc2)c2c(-c3ccccc3)csc2n1 [Example 1.52, 4-((2-(N-Ethyl-N-(2-hydroxyethyl)amino)-5-phenylthieno[2,3-d]pyrimidin-4-yl)aminomethyl)-benzenesulfonamide] | < 0.1 µM | 0.1 to 1 µM |
| CCN(c1nc(NCc2ccc(S(N)(=O)=O)cc2)c2c(-c3ccccc3)csc2n1)C(C)(C)CO [Example 1.53, 4-((2-(N-Ethyl-N-(1-hydroxy-2-methylpropan-2-yl)amino)-5-phenylthieno[2,3-d]pyrimidin-4-yl)aminomethyl)benzenesulfonamide] | 0.1 to 1 µM | 0.1 to 1 µM |
| c1ccc(CNc2nc(-c3ccccn3)nc3scc(-c4ccccc4)c23)cc1 [Example 1.5, N-Benzyl-5-phenyl-2-(pyridin-2-yl)thieno[2,3-d]pyrimidin-4-amine] | > 20 µM | > 20 µM |
| Cn1ncc2c(NCc3ccc(S(N)(=O)=O)c(Cl)c3)ccnc21 [Example 2.68, 2-Chloro-4-(((1-methyl-1H-pyrazolo[3,4-b]pyridin-4-yl)amino)methyl)-benzenesulfonamide] | 0.1 to 1 µM | 1 to 20 µM |
| CCn1ncc2c(NCc3ccc(S(N)(=O)=O)cc3)nc(OCCC(C)(C)OC)nc21 [Example 2.98, 4-((1-Ethyl-6-(3-methoxy-3-methylbutoxy)-1H-pyrazolo[3,4-d]pyrimidin-4-yl)aminomethyl)-benzenesulfonamide] | < 0.1 µM | 1 to 20 µM |
| CNc1nc(NCc2ccc(S(N)(=O)=O)cc2)c2c(-c3ccccc3)csc2n1 [Example 1.42, 4-(((2-(Methylamino)-5-phenylthieno[2,3-d]pyrimidin-4-yl)amino)methyl)-benzenesulfonamide] | < 0.1 µM | < 0.1 µM |
| Cc1csc2c(N3CCC(NCCCc4ccccc4)CC3)ncnc12 [Example 3.27, 1-(7-Methylthieno[3,2-d]pyrimidin-4-yl)-N-(3-phenylpropyl)piperidin-4-amine] | 0.1 to 1 µM | > 20 µM |
| Cn1ncc2c(NCc3ccc(S(N)(=O)=O)cn3)ccnc21 [Example 2.71, 6-(((1-Methyl-1H-pyrazolo[3,4-b]pyridin-4-yl)amino)methyl)pyridine-3-sulfonamide] | < 0.1 µM | 0.1 to 1 µM |
| Cc1csc2c(N3CCC(NCCCc4ccncc4)CC3)nc(N3CCN(C)CC3)nc12 [Example 3.53, 1-(7-Methyl-2-(4-methylpiperazin-1-yl)thieno[3,2-d]pyrimidin-4-yl)-N-(3-(pyridin-4-yl)propyl)piperidin-4-amine] | > 20 µM | > 20 µM |
| Cc1nc(NCc2ccc(S(N)(=O)=O)cc2)c2c(C3=CCCC3)nn(C)c2n1 [Example 2.127, 4-((3-(1-Cyclopenten-1-yl)-1,6-dimethyl-1H-pyrazolo[3,4-d]pyrimidin-4-yl)aminomethyl)benzenesulfonamide] | 1 to 20 µM | 0.1 to 1 µM |
| CCNc1nc(NCc2ccc(S(N)(=O)=O)cc2F)c2cnn(C)c2n1 [Example 2.141, 4-(((6-(Ethylamino)-1-methyl-1H-pyrazolo[3,4-d]pyrimidin-4-yl)amino)methyl)-3-fluorobenzenesulfonamide] | 0.1 to 1 µM | 0.1 to 1 µM |
| Cc1cc(S(N)(=O)=O)ccc1CNc1ccnc2c1cnn2C [Example 2.69, 3-Methyl-4-(((1-methyl-1H-pyrazolo[3,4-b]pyridin-4-yl)amino)methyl)-benzenesulfonamide] | 0.1 to 1 µM | 1 to 20 µM |
| Cn1ncc2c(NCc3ccc(S(N)(=O)=O)c(F)c3)ccnc21 [Example 2.67, 2-Fluoro-4-(((1-methyl-1H-pyrazolo[3,4-b]pyridin-4-yl)amino)methyl)benzenesulfonamide] | < 0.1 µM | 0.1 to 1 µM |
| NS(=O)(=O)c1ccc(COc2ncnc3scc(-c4ccccc4)c23)cc1 [Example 1.70, 4-((5-Phenylthieno[2,3-d]pyrimidin-4-yl)oxymethyl)benzenesulfonamide] | 0.1 to 1 µM | 1 to 20 µM |
| COc1nc(NCc2ccc(S(N)(=O)=O)cc2)c2c(Br)nn(C)c2n1 [Example 2.96, 4-((3-Bromo-6-methoxy-1-methyl-1H-pyrazolo[3,4-d]pyrimidin-4-yl)aminomethyl)-benzenesulfonamide] | < 0.1 µM | < 0.1 µM |
| Cc1ccc(CCCNC2CCN(c3ncnc4c(C)csc34)CC2)cc1 [Example 3.4, 1-(7-Methylthieno[3,2-d]pyrimidin-4-yl)-N-(3-(p-tolyl)propyl)piperidin-4-amine] | 0.1 to 1 µM | > 20 µM |
| CCc1nc(N2CCC(NCCCc3ccncc3)CC2)c2scc(C)c2n1 [Example 3.54, 1-(2-Ethyl-7-methylthieno[3,2-d]pyrimidin-4-yl)-N-(3-(pyridin-4-yl)propyl)piperidin-4-amine] | > 20 µM | > 20 µM |
